Our source for the IC50 values is patent US7173023B2, “Bicyclic compounds” (Hoffmann-La Roche Inc., priority 2003, dated 2007).

The target in one experiment is T1, human MAO-A (Homo sapiens, UniProt P21397).
T1 construct: expressed in transfected cells; host or cells: EBNA cells (transient transfection); cell membranes used
T1 sequence (P21397 1-527): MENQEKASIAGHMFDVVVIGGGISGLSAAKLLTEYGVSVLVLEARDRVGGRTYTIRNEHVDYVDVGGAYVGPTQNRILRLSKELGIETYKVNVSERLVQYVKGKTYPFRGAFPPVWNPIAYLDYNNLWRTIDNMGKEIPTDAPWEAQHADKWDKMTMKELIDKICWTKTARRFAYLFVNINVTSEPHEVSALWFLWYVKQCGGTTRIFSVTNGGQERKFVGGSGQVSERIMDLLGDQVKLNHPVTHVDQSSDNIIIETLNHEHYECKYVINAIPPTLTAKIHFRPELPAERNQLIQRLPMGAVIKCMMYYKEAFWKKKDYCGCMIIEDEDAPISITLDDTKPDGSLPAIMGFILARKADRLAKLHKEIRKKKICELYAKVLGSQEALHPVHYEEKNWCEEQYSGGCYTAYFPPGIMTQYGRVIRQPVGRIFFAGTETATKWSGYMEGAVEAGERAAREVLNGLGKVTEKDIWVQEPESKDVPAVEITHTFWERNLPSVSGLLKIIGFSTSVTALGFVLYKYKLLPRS
The experiment can be described thus: MAO-A enzymatic activity, spectrophotometric assay (tyramine, Amplex Red). The experiment is classed as biochemical. As to conditions: membranes of EBNA cells transfected with human MAO-A cDNA; 30 min preincubation at 37° C., pH 7.4; substrate tyramine. The method, then: (§1) The cDNA's encoding human MAO-A and MAO-B were transiently transfected into EBNA cells using the procedure described by Schlaeger and Christensen [Cytotechnology 15:1–13 (1998)]. After transfection, cells were homogenised by means of a Polytron homogenizer in 20 mM Tris HCl buffer, pH 8.0, containing 0.5 mM EGTA and 0.5 mM phenylmethanesulfonyl fluoride. Cell membranes were obtained by centrifugation at 45,000×g and, after two rinsing step with 20 mM Tris HCl buffer, pH 8.0, containing 0.5 mM EGTA, membranes were eventually re-suspended in the above buffer and aliquots stored at −80° C. until use.
(§2) MAO-A and MAO-B enzymatic activity was assayed in 96-well-plates using a spectrophotometric assay adapted from the method described by Zhou and Panchuk-Voloshina [Analytical Biochemistry 253:169–174 (1997)]. Briefly, membrane aliquots were incubated in 0.1 M potassium phosphate buffer, pH 7.4, for 30 min at 37° C. with or without various concentrations of the compounds. After this period, the enzymatic reaction was started by the addition of the MAO substrate tyramine together with 1 U/ml horse-radish peroxidase (Roche Biochemicals) and 80 μM N-acetyl-3,7,-dihydroxyphenoxazine (Amplex Red, Molecular Probes). The samples were further incubated for 30 min at 37° C. in a final volume of 200 μl and absorbance was then determined at a wavelength of 570 nm using a SpectraMax plate reader (Molecular Devices). Background (non-specific) absorbance was determined in the presence of 10 μM clorgyline for MAO-A or 10 μM L-deprenyl for MAO-B.
(§3) IC50 values were determined from inhibition curves obtained using nine inhibitor concentrations in duplicate, by fitting data to a four parameter logistic equation using a computer program.

The target in another experiment is T2, human MAO-B (Homo sapiens, UniProt P27338).
T2 construct: expressed in transfected cells; host or cells: EBNA cells (transient transfection); cell membranes used
T2 sequence (P27338 1-520): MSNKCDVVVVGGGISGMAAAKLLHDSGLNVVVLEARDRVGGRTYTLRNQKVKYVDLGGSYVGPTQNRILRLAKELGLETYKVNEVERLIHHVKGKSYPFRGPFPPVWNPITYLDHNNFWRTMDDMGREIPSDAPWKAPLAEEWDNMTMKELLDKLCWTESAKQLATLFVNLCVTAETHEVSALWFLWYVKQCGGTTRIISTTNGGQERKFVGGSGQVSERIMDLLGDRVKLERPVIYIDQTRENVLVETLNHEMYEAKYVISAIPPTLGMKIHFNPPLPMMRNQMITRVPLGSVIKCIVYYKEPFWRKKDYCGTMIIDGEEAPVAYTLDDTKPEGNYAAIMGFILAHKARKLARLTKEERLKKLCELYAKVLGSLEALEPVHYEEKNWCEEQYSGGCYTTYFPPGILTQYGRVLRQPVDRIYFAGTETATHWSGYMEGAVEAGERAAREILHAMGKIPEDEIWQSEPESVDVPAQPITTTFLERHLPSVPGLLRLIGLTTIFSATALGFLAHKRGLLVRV
The experiment can be described thus: MAO-B enzymatic activity, spectrophotometric assay (tyramine, Amplex Red). The experiment is classed as biochemical. Conditions: membranes of EBNA cells transfected with human MAO-B cDNA; 30 min preincubation at 37° C., pH 7.4; substrate tyramine. How it is done:
as §1, §2, §3

Regarding `NC(=O)C(=O)N1CCc2ccc(OCc3cccc(F)c3)cc2CC1` [Example 3, 2-[7-(3-Fluoro-benzyloxy)-1,2,4,5-tetrahydro-benzo[d]azepin-3-yl]-2-oxo-acetamide], the IC50 against human MAO-A is greater than 10 µM; against human MAO-B it was 0.024 µM.
`CN1C=Cc2ccc(OCc3cccc(F)c3)cc2CC1=O` [Example 13, 8-(3-Fluoro-benzyloxy)-3-methyl-1,3-dihydro-benzo[d]azepin-2-one]: the IC50 on human MAO-A came out at 4.6 µM; against human MAO-B, 0.15 µM.
The matching figures for `CC(=O)N1CCc2ccc(OCc3cccc(F)c3)cc2CC1` [Example 1, 1-[7-(3-Fluoro-benzyloxy)-1,2,4,5-tetrahydro-benzo[d]azepin-3-yl]-ethanone]: greater than 10 µM and 0.082 µM.
Consider `CC(=O)N1C=Cc2ccc(OCc3cccc(F)c3)cc2CC1=O` [Example 15, 3-Acetyl-8-(3-fluoro-benzyloxy)-1,3-dihydro-benzo[d]azepin-2-one], for which the results for the IC50 on human MAO-A and against human MAO-B were greater than 9.5 µM and 0.13 µM, respectively.
`COCC(=O)N1CCc2ccc(OCc3cccc(F)c3)cc2CC1` [Example 2, 1-[7-(3-Fluoro-benzyloxy)-1,2,4,5-tetrahydro-benzo[d]azepin-3-yl]-2-methoxy-ethanone]: the IC50 against human MAO-A was determined as 5.5 µM; at human MAO-B, 0.073 µM.
As for `COC(=O)N1CCc2ccc(OCc3cccc(F)c3)cc2CC1` [Example 5, 7-(3-Fluoro-benzyloxy)-1,2,4,5-tetrahydro-benzo[d]azepine-3-carboxylic Acid Methyl Ester], the IC50 against human MAO-A is 4.5 µM; on human MAO-B, 0.068 µM.
Turning to `O=CN1CCc2ccc(OCc3cccc(F)c3)cc2CC1` [Example 6, 7-(3-Fluoro-benzyloxy)-1,2,4,5-tetrahydro-benzo[d]azepine-3-carbaldehyde], the IC50 amounted to 4.1 µM against human MAO-A and 0.007 µM against human MAO-B.
In the case of `NC(=O)N1CCc2ccc(OCc3cccc(F)c3)cc2CC1` [Example 8, 7-(3-Fluoro-benzyloxy)-1,2,4,5-tetrahydro-benzo[d]azepine-3-carboxylic Acid Amide], the IC50 against human MAO-A is greater than 10 µM; on human MAO-B, 0.021 µM.

The IC50 is the concentration that inhibits the measured activity by half. Higher therefore signals weaker potency.
